Results as given in ChEMBL document CHEMBL5042529, “One-Pot Enzymatic Synthesis and Biological Evaluation of Ganglioside GM3 Derivatives as Potential Cancer Immunotherapeutics” (J Med Chem, 2022).
Active and inactive are the calls of the source. No cut-off for these calls is given here.

What was measured:
[1] = test system: A-431; assay: Inhibition of cell invasion in human A-431 cells assessed as inhibition rate at 50 uM incubated for 24 hrs by crystal violet staining based transwell assay; assay type: functional
[2] = test system: B16; assay: Anticancer activity against mouse B16-Luc cells transfected in BALB/c mouse assessed as tumor inhibition rate at 5 mg/kg, ip qd treated for 7 days; assay type: functional; settings: 168 h, time 7 day
[3] = test system: B16; assay: Anticancer activity against mouse B16-Luc cells transfected in C57BL/6 mouse assessed as relative tumor weight at 5 mg/kg, ip qd treated for 7 days (reference value: 8 + /- 4.1 g); assay type: functional; settings: time 7 day
[4] = Downregulation of HSPG2 gene expression in human A431 cells at 50 uM incubated for 24 hrs by qPCR analysis; assay type: functional; settings: A-431
[5] = Downregulation of HSPG2 gene expression in human A431 cells at 50 uM incubated for 24 hrs by RNA-seq analysis; assay type: functional; settings: A-431
[6] = test system: Mus musculus; assay: Effect on IgG expression in BALB/c mouse transfected with mouse B16-Luc cells assessed as serum IgG level at 5 mg/kg, ip qd treated for 7 days by ELISA; assay type: functional, organism-based; settings: time 7.0 day
[7] = Cytotoxicity against CHO cells measured after 24 hrs by MTT assay; assay type: toxicity, cell-based, Cricetulus griseus; settings: Chinese hamster
[8] = Clearance in C57BL/6 mouse at 10 mg/kg, iv measured upto 24 hrs; assay type: ADME, organism-based; settings: in vivo
[9] = Downregulation of LAMA5 gene expression in human A431 cells at 50 uM incubated for 24 hrs by qPCR analysis; assay type: functional; settings: A-431
[10] = Downregulation of LAMA5 gene expression in human A431 cells at 50 uM incubated for 24 hrs by RNA-seq analysis; assay type: functional; settings: A-431
[11] = test system: Mus musculus; assay: Effect on IL-2 expression in C57BL/6 mouse transfected with mouse B16-Luc cells assessed as serum […] level at 5 mg/kg, ip qd treated for 7 days by ELISA; assay type: functional, organism-based; settings: time 7.0 day
[12] = test system: B16; assay: Anticancer activity against mouse B16-Luc cells transfected in C57BL/6 mouse assessed as cellular debris in tumor tissue at 5 mg/kg, ip qd treated for 7 days by H and E staining based microscopy; assay type: functional, organism-based; settings: time 7.0 day
[13] = test system: B16; assay: Anticancer activity against mouse B16-Luc cells transfected in C57BL/6 mouse assessed as increase in tumor necrotic area at 5 mg/kg, ip qd treated for 7 days by H and E staining based microscopy relative to control; assay type: functional, organism-based; settings: time 7.0 day
[14] = test system: Mus musculus; assay: Effect on IL-2 expression in C57BL/6 mouse transfected with mouse B16-Luc cells assessed as serum IgG level at 5 mg/kg, ip qd treated for 7 days by ELISA; assay type: functional, organism-based; settings: time 7.0 day
[15] = test system: B16; assay: Anticancer activity against mouse B16-Luc cells transfected in BALB/c mouse assessed as nuclear pyknosis in tumor tissue at 5 mg/kg, ip qd treated for 7 days by H and E staining based microscopy; assay type: functional, organism-based; settings: time 7.0 day
[16] = Cytotoxicity against rat PC-12 cells measured after 24 hrs by MTT assay; assay type: toxicity, cell-based
[17] = Cytotoxicity against mouse Neuro2a cells measured after 24 hrs by MTT assay; assay type: toxicity, cell-based, N2a
[18] = test system: B16; assay: Anticancer activity against mouse B16-Luc cells transfected in BALB/c mouse assessed as cellular debris in tumor tissue at 5 mg/kg, ip qd treated for 7 days by H and E staining based microscopy; assay type: functional, organism-based; settings: time 7.0 day
[19] = test system: Mus musculus; assay: Increase in IL-12 expression in BALB/c mouse transfected with mouse B16-Luc cells assessed as […] at 5 mg/kg, ip qd treated for 7 days by ELISA; assay type: functional, organism-based; settings: time 7.0 day
[20] = test system: Mus musculus; assay: Increase in IL-12 expression in C57BL/6 mouse transfected with mouse B16-Luc cells assessed as […] at 5 mg/kg, ip qd treated for 7 days by ELISA; assay type: functional, organism-based; settings: time 7.0 day
[21] = test system: B16; assay: Anticancer activity against mouse B16-Luc cells transfected in BALB/c mouse assessed as relative tumor weight at 5 mg/kg, ip qd treated for 7 days (reference value: 5.3 + /-1.4 g); assay type: functional; settings: time 7 day
[22] = Apparent volume of distribution in C57BL/6 mouse at 10 mg/kg, iv measured upto 24 hrs; assay type: ADME, organism-based; settings: in vivo
[23] = Downregulation of VAVI gene expression in human A431 cells at 50 uM incubated for 24 hrs by qPCR analysis; assay type: functional; settings: A-431
[24] = Cytotoxicity against human A-431 cells measured after 24 hrs by MTT assay; assay type: toxicity, cell-based
[25] = Downregulation of VAVI gene expression in human A431 cells at 50 uM incubated for 24 hrs by RNA-seq analysis; assay type: functional; settings: A-431
[26] = test system: B16; assay: Anticancer activity against mouse B16-Luc cells transfected in C57BL/6 mouse assessed as inflammatory cell infiltration in tumor tissue at 5 mg/kg, ip qd treated for 7 days by H and E staining based microscopy; assay type: functional, organism-based; settings: time 7.0 day
[27] = test system: B16; assay: Anticancer activity against mouse B16-Luc cells transfected in C57BL/6 mouse assessed as tumor inhibition rate at 5 mg/kg, ip qd treated for 7 days; assay type: functional; settings: 168 h, time 7 day
[28] = Reduction of VAVI expression in human A431 cells at 50 uM incubated for 24 hrs by Western blotting analysis; assay type: functional; settings: A-431
[29] = test system: A-431; assay: Antimigratory activity in human A-431 cells assessed as inhibition of scratch at 50 uM measured after 24 hrs by Wound healing assay; assay type: functional; set-up: scale not given: the % may be the effect or the level left
[30] = test system: Mus musculus; assay: Effect on IL-2 expression in BALB/c mouse transfected with mouse B16-Luc cells assessed as serum IL-2 level at 5 mg/kg, ip qd treated for 7 days by ELISA; assay type: functional, organism-based; settings: time 7.0 day
[31] = test system: B16; assay: Anticancer activity against mouse B16-Luc cells transfected in BALB/c mouse assessed as increase in tumor necrotic area at 5 mg/kg, ip qd treated for 7 days by H and E staining based microscopy relative to control; assay type: functional, organism-based; settings: time 7.0 day
[32] = Half life in C57BL/6 mouse 10 mg/kg, iv measured upto 24 hrs; assay type: ADME, organism-based; settings: in vivo
[33] = Cytotoxicity against human HeLa cells measured after 24 hrs by MTT assay; assay type: toxicity, cell-based
[34] = test system: B16; assay: Anticancer activity against mouse B16-Luc cells transfected in BALB/c mouse assessed as cell atypia in tumor tissue at 5 mg/kg, ip qd treated for 7 days by H and E staining based microscopy; assay type: functional, organism-based; settings: time 7.0 day
[35] = test system: Mus musculus; assay: Effect on IL-2 expression in C57BL/6 mouse transfected with mouse B16-Luc cells assessed as serum IL-2 level at 5 mg/kg, ip qd treated for 7 days by ELISA; assay type: functional, organism-based; settings: time 7.0 day
[36] = Reduction of integrin beta1 expression in human A431 cells at 50 uM incubated for 24 hrs by Western blotting analysis; assay type: functional; settings: A-431
[37] = test system: B16; assay: Anticancer activity against mouse B16-Luc cells transfected in C57BL/6 mouse assessed as cell atypia in tumor tissue at 5 mg/kg, ip qd treated for 7 days by H and E staining based microscopy; assay type: functional, organism-based; settings: time 7.0 day
[38] = Downregulation of XIAP gene expression in human A431 cells at 50 uM incubated for 24 hrs by qPCR analysis; assay type: functional; settings: A-431
[39] = Downregulation of XIAP gene expression in human A431 cells at 50 uM incubated for 24 hrs by RNA-seq analysis; assay type: functional; settings: A-431
[40] = Toxicity in C57BL/6 mouse transfected with mouse B16-Luc cells assessed as behavioral abnormalities at 5 mg/kg, sc qd treated for 7 days; assay type: organism-based; settings: in vivo, 168 h, time 7 day
[41] = test system: B16; assay: Anticancer activity against mouse B16-Luc cells transfected in C57BL/6 mouse assessed as nuclear pyknosis in tumor tissue at 5 mg/kg, ip qd treated for 7 days by H and E staining based microscopy; assay type: functional, organism-based; settings: time 7.0 day
[42] = test system: B16; assay: Anticancer activity against mouse B16-Luc cells transfected in BALB/c mouse assessed as inflammatory cell infiltration in tumor tissue at 5 mg/kg, ip qd treated for 7 days by H and E staining based microscopy; assay type: functional, organism-based; settings: time 7.0 day
[43] = Toxicity in BALB/c mouse transfected with mouse B16-Luc cells assessed as behavioral abnormalities at 5 mg/kg, sc qd treated for 7 days; assay type: organism-based; settings: in vivo, 168 h, time 7 day

For `CCCCCCCCCCCCC/C=C/[C@@H](O)[C@H](CO[C@@H]1O[C@H](CO)[C@@H](O[C@@H]2O[C@H](CO)[C@H](O)[C@H](O[C@]3(C(=O)O)C[C@H](O)[C@@H](NC(=O)c4cccc(I)c4)[C@H]([C@H](O)[C@H](O)CO)O3)[C@H]2O)[C@H](O)[C@H]1O)NC(=O)CCCCCCCCCCCCCCCCC`, the inhibition at 50 µM [1] was 36.6%, the inhibition in vivo at 5 mg/kg [2] was 29.2% and the Activity [3] was 4.3 g. The inhibition at 50 µM [4] was 33.4%, the inhibition at 50 µM [5] was 55.2% and the Activity [6] was “inactive”. The IC50 at 24 h [7] was > 200 µM, the CL [8] was 0.483 µL/min/mg and the inhibition at 50 µM [9] was 54.1%. The inhibition at 50 µM [10] was 50.8%, the Activity [11] was “inactive” and the Activity [12] was “Active”. The Activity [13] was “Active”, the Activity [14] was “inactive” and the Activity [15] was “Active”. The IC50 at 24 h [16] was > 200 µM, the IC50 at 24 h [17] was > 200 µM and the Activity [18] was “Active”. For the same compound, the Activity [19] was “inactive”, the Activity [20] was “inactive” and the Activity [21] was 5.3 g. The Vd [22] was 2.4 mL/mg, the inhibition at 50 µM [23] was 93.4% and the IC50 at 24 h [24] was > 200 µM. The inhibition at 50 µM [25] was 100%, the Activity [26] was “Active” and the inhibition in vivo at 5 mg/kg [27] was 46.2%. For the same compound, the inhibition at 50 µM [28] was 14.5%, the Activity [29] was 46.7% and the Activity [30] was “inactive”. The Activity [31] was “Active”, the half-life [32] was 56.8 h and the IC50 at 24 h [33] was > 200 µM. The Activity [34] was “Active”, the Activity [35] was “inactive” and the inhibition at 50 µM [36] was 14.7%. The Activity [37] was “Active”, the inhibition at 50 µM [38] was 46.2% and the inhibition at 50 µM [39] was 52.5%. For the same compound, the Activity [40] was “Non-Toxic”, the Activity [41] was “Active” and the Activity [42] was “Active”. The Activity [43] was “Non-Toxic”.
